Measured values as given in patent US20170008928A1, “NOVEL PEPTIDES AND PEPTIDE DERIVATIVES AND USES THEREOF” (Novo Nordisk A/S, priority 2015, published 2017).
Like-named read-outs stand apart in the source and are kept apart here. Starred links: 1 amine or outer side, 2 acyl side, 3 side chain; linkers in the order of their positions; H or OH if unused. Non-standard residues stand in square brackets, D forms with d. Residues, ends and D or L forms follow the SMILES beside them. *: point of attachment. Phe(4-CH2SO3H) = N[C@@H](Cc1ccc(CS(=O)(=O)O)cc1)C(=O)O; sY = N[C@@H](Cc1ccc(OS(=O)(=O)O)cc1)C(=O)O; C18 diacid = O=C(O)CCCCCCCCCCCCCCCCC(=O)*; C16 diacid = O=C(O)CCCCCCCCCCCCCCC(=O)*; γGlu = O=C(O)[C@H](CCC(=O)[*:2])N[*:1]; βAsp = O=C(O)[C@H](CC(=O)[*:2])N[*:1]; NMeF = CN[C@@H](Cc1ccccc1)C(=O)O; dNMeD = CN[C@H](CC(=O)O)C(=O)O; Nle = CCCC[C@H](N)C(=O)O; AEEA = NCCOCCOCC(=O)O

Legend:
[1] = target: T1, human cholecystokinin-2 receptor (CCK-2R) (Homo sapiens, UniProt P32239); assay: In vitro potency on CCK-2R, whole cell functional assay (IP1 accumulation, IP-One HTRF); assay type: cell-based
T1 construct: host or cells: 1321-N1 cells (plasma membranes prepared by Evotec AG Hamburg)
T1 sequence (P32239 1-447): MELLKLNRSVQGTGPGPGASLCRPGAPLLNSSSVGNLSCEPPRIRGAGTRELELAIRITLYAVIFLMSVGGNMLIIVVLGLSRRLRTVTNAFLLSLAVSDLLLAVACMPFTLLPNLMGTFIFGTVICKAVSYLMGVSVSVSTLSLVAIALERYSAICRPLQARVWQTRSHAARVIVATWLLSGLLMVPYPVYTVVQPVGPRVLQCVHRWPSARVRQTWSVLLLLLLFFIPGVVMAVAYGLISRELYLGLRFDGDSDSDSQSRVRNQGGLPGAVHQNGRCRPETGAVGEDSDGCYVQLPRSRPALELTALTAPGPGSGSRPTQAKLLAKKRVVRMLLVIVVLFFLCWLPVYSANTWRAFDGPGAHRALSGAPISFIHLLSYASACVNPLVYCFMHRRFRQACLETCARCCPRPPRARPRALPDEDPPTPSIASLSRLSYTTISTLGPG

[2] = target: T2, human cholecystokinin-1 receptor (CCK-1R) (Homo sapiens, UniProt P32238); assay: In vitro receptor binding to CCK-1R, SPA displacement of [125I]-CCK-8s from plasma membranes; conditions: for CCK-1R binding selectivity (IC50 (CCK-2R)/IC50 (CCK-1R)): ratio of binding IC50 values, >1 = preference for CCK-1R
T2 construct: host or cells: 1321-N1 cells
T2 sequence (P32238 1-428): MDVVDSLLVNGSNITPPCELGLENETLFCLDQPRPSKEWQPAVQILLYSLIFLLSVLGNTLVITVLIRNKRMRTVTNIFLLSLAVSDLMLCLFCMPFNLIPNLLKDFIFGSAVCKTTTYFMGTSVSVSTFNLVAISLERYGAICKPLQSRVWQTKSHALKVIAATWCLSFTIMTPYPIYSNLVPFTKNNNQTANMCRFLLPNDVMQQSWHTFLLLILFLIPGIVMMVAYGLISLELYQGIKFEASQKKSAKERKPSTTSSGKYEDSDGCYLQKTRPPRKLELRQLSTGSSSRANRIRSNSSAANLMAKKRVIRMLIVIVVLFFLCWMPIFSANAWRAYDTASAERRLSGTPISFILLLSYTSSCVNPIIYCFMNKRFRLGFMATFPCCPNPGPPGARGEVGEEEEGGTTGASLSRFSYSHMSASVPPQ

[3] = target: T1, human cholecystokinin-2 receptor (CCK-2R); assay: In vitro receptor binding to CCK-2R, SPA displacement of [125I]-CCK-8s from plasma membranes
[4] = target: T2, human cholecystokinin-1 receptor (CCK-1R); assay: In vitro potency on CCK-1R, whole cell functional assay (IP1 accumulation, IP-One HTRF); assay type: cell-based; conditions: for CCK-1R selectivity (EC50 (CCK-2R)/EC50 (CCK-1R)): ratio of functional EC50 values, >1 = preference for CCK-1R
[5] = 1321-N1 cells stably expressing CCK-2R, IP1 accumulation, highest dose tested 1×10^6 pM, read-out: EC50 (CCK-2R)
[6] = displacement of [125I]-CCK-8s, plasma membranes of 1321-N1 cells expressing CCK-1R, read-out: IC50 (CCK-1R)
[7] = displacement of [125I]-CCK-8s, plasma membranes of 1321-N1 cells expressing CCK-2R, highest dose tested 1×10^7 pM, read-out: IC50 (CCK-2R)
[8] = 1321-N1 cells stably expressing CCK-1R, IP1 accumulation, average of min. three replicates, read-out: EC50 (CCK-1R)

**Q.** With `CCCC[C@H](NC(=O)[C@H](Cc1c[nH]c2ccccc12)NC(=O)CNC(=O)[C@H](Cc1ccccc1)NC(=O)[C@H](Cc1ccc(OS(=O)(=O)O)cc1)NC(=O)[C@@H](N)CC(=O)O)C(=O)N(C)[C@H](CC(=O)O)C(=O)N(C)[C@@H](Cc1ccccc1)C(N)=O` [Example 78, Asp-sTyr-Phe-Gly-Trp-Nle-DMeAsp-MePhe-amide] (H-D[sY]FGW[Nle][dNMeD][NMeF]-NH2) as the molecule, how does the EC50 [1, 5] read?
**A.** > 1000 nM

**Q.** And the IC50 [2, 6]?
**A.** 0.029 nM

**Q.** And the “CCK-1R binding selectivity (IC50 (CCK-2R)/IC50 (CCK-1R))” value (“CCK-1R binding selectivity” for short) [2]?
**A.** 32000

**Q.** What about the IC50 [3, 7] of the same molecule?
**A.** 920 nM

**Q.** What about the EC50 [4, 8] of the same molecule?
**A.** 0.22 nM

**Q.** With `CCCC[C@H](NC(=O)[C@H](Cc1c[nH]c2ccccc12)NC(=O)CNC(=O)[C@H](CC(C)C)NC(=O)[C@H](Cc1ccc(CS(=O)(=O)O)cc1)NC(=O)[C@H](CC(=O)O)NC(=O)COCCOCCNC(=O)COCCOCCNC(=O)CC[C@H](NC(=O)CCCCCCCCCCCCCCC(=O)O)C(=O)O)C(=O)N(C)[C@H](CC(=O)O)C(=O)N(C)[C@@H](Cc1ccccc1)C(N)=O` [Example 6, 2-[2-[2-[[2-[2-[2-[[(4S)-4-Carboxy-4-(15-carboxypentadecanoylamino)butanoyl]amino]ethoxy]ethoxy]acetyl]amino]ethoxy]ethoxy]acetyl-Asp-Phe(4-sulfomethyl)-Leu-Gly-Trp-Nle-DMeAsp-MePhe-amide] ({C16 diacid-γGlu-AEEA-AEEA}-D[Phe(4-CH2SO3H)]LGW[Nle][dNMeD][NMeF]-NH2) as the molecule, how does the EC50 [1] read?
**A.** > 1000 nM

**Q.** And the IC50 [2]?
**A.** 0.2 nM

**Q.** What about the IC50 [3] of the same molecule?
**A.** > 10000 nM

**Q.** And the EC50 [4]?
**A.** 0.2 nM

**Q.** How did the EC50 [1, 5] turn out when `CC(C)C[C@H](NC(=O)[C@H](Cc1ccc(OS(=O)(=O)O)cc1)NC(=O)[C@H](CCC(=O)O)NC(=O)COCCOCCNC(=O)COCCOCCNC(=O)CC[C@H](NC(=O)CCCCCCCCCCCCCCCCC(=O)O)C(=O)O)C(=O)NCC(=O)N[C@@H](Cc1c[nH]c2ccccc12)C(=O)N[C@@H](CCC(N)=O)C(=O)N(C)[C@H](CC(=O)O)C(=O)N(C)[C@@H](Cc1ccccc1)C(N)=O` [Example 42, 2-[2-[2-[[2-[2-[2-[[(4S)-4-Carboxy-4-(17-carboxyheptadecanoylamino)butanoyl]amino]ethoxy]ethoxy]acetyl]amino]ethoxy]ethoxy]acetyl-Glu-sTyr-Leu-Gly-Trp-Gln-DMeAsp-MePhe-amide] was run?
**A.** > 1000 nM

**Q.** And the “CCK-1R binding selectivity” value [2]?
**A.** very selective

**Q.** And the IC50 [3, 7]?
**A.** > 10000 nM

**Q.** What about the EC50 [4, 8] of the same molecule?
**A.** 0.22 nM

**Q.** What about the “CCK-1R selectivity (EC50 (CCK-2R)/EC50 (CCK-1R))” value [4] of the same molecule?
**A.** very selective

**Q.** With `CCCC[C@H](NC(=O)[C@H](Cc1ccc(CS(=O)(=O)O)cc1)NC(=O)C[C@H](N)C(=O)O)C(=O)NCC(=O)N[C@@H](Cc1c[nH]c2ccccc12)C(=O)N[C@@H](CCCC)C(=O)N(C)[C@H](CC(=O)O)C(=O)N(C)[C@@H](Cc1ccccc1)C(N)=O` [Example 75, bAsp-Phe(4-sulfomethyl)-Nle-Gly-Trp-Nle-DMeAsp-MePhe-amide] (βAsp-[Phe(4-CH2SO3H)][Nle]GW[Nle][dNMeD][NMeF]-NH2) as the molecule, how does the EC50 [1, 5] read?
**A.** > 1000 nM

**Q.** And the IC50 [2, 6]?
**A.** 0.049 nM

**Q.** What about the “CCK-1R binding selectivity” value [2] of the same molecule?
**A.** 59000

**Q.** What about the EC50 [4, 8] of the same molecule?
**A.** 0.19 nM

**Q.** Which “CCK-1R binding selectivity” value [2] does the source give for `CCCC[C@H](NC(=O)[C@H](Cc1c[nH]c2ccccc12)NC(=O)CNC(=O)[C@H](C)NC(=O)[C@H](Cc1ccc(OS(=O)(=O)O)cc1)NC(=O)[C@H](CC(=O)O)NC(=O)COCCOCCNC(=O)COCCOCCNC(=O)CC[C@H](NC(=O)CCCCCCCCCCCCCCCCC(=O)O)C(=O)O)C(=O)N(C)[C@H](CC(=O)O)C(=O)N(C)[C@@H](Cc1ccccc1)C(N)=O` [Example 46, 2-[2-[2-[[2-[2-[2-[[(4S)-4-Carboxy-4-(17-carboxyheptadecanoylamino)butanoyl]amino]ethoxy]ethoxy]acetyl]amino]ethoxy]ethoxy]acetyl-Asp-sTyr-Ala-Gly-Trp-Nle-DMeAsp-MePhe-amide] ({C18 diacid-γGlu-AEEA-AEEA}-D[sY]AGW[Nle][dNMeD][NMeF]-NH2) here?
**A.** 4100

**Q.** And the EC50 [4, 8]?
**A.** 0.22 nM

**Q.** What about the “CCK-1R selectivity (EC50 (CCK-2R)/EC50 (CCK-1R))” value [4] of the same molecule?
**A.** 440
